From PubChem BioAssay (NCI)
Converted amounts (≈) assume the structure as drawn.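 Five concentrations, 48 hours, 96-well plates. GI50 marks 50% less growth. TGI: concentration producing complete growth inhibition.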

Assays:
Assay in all cases: NCI tumour cell line growth inhibition, 48 h
COLO 205 colon = system: COLO 205 colon
HOP-62 NSCLC = system: HOP-62 NSCLC
HOP-92 NSCLC = system: HOP-92 NSCLC
IGROV1 ovarian = system: IGROV1 ovarian
OVCAR-3 ovarian = system: OVCAR-3 ovarian
OVCAR-5 ovarian = system: OVCAR-5 ovarian
RPMI-8226 leukemia = system: RPMI-8226 leukemia
HL-60(TB) leukemia = system: HL-60(TB) leukemia
MCF7 breast = system: MCF7 breast
DU-145 prostate = system: DU-145 prostate

SMILES	TGI (COLO 205 colon) [µM]	TGI (HOP-62 NSCLC) [µM]	TGI (HOP-92 NSCLC) [µM]	TGI (IGROV1 ovarian) [µM]	TGI (OVCAR-3 ovarian)	TGI (OVCAR-5 ovarian) [µM]	TGI (RPMI-8226 leukemia)	TGI (HL-60(TB) leukemia) [µM]	TGI (MCF7 breast) [µM]	GI50 (COLO 205 colon) [µM]	GI50 (DU-145 prostate) [µM]	TGI (DU-145 prostate) [µM]	GI50 (HL-60(TB) leukemia) [µM]	GI50 (HOP-62 NSCLC)	GI50 (IGROV1 ovarian)	GI50 (MCF7 breast)	GI50 (OVCAR-3 ovarian)	GI50 (OVCAR-5 ovarian) [µM]	GI50 (RPMI-8226 leukemia)	GI50 (HOP-92 NSCLC) [µg/mL]
O=C1/C(=C\c2ccccc2)c2ccccc2N1/N=C\c1ccccc1	> 100	> 100	> 100	> 100	> 100 µM	> 100	> 100 µM	–	–	–	–	–	–	–	–	–	–	–	–	–
O=S(=O)(N/N=C/c1ccc(Cl)cc1Cl)c1ccccc1	> 100	> 100	94.9	> 100	> 100 µM	> 100	> 100 µM	56.9	–	–	–	–	–	–	–	–	–	–	–	–
N#CC(C(=O)CCC(=O)Nc1ccc(Cl)c(Cl)c1)c1ccc(Cl)cc1 (centres undefined)	–	> 100	> 100	> 100	> 100 µM	> 100	> 100 µM	> 100	–	–	–	–	–	–	–	–	–	–	–	–
COC1(Cc2ccccc2)C(=O)c2ccccc2N1C(C)=O (centres undefined)	> 100	> 100	> 100	> 100	> 100 µM	–	> 100 µM	> 100	–	–	–	–	–	–	–	–	–	–	–	–
COC(=O)C1=C(c2ccc(Cl)cc2)C(O)N=C(NN)N1 (centres undefined)	–	> 100	> 100	> 100	> 100 µM	> 100	> 100 µM	> 100	–	–	–	–	–	–	–	–	–	–	–	–
CCSC(=O)C1(C)OC2CCCCC2C1=O (centres undefined)	> 100	> 100	–	> 100	–	–	> 100 µM	> 100	–	–	–	–	–	–	–	–	–	–	–	–
CCOC(=O)/C=C1\Oc2ccccc2C1(C)O (centres undefined)	> 100	> 100	> 100	> 100	> 100 µM	> 100	> 100 µM	> 100	–	–	–	–	–	–	–	–	–	–	–	–
Cc1ccc(Nc2nc(C)c(C(/C=C/c3ccc4c(c3)OCO4)=N/Nc3ccc([N+](=O)[O-])cc3[N+](=O)[O-])s2)c([N+](=O)[O-])c1	> 100	> 100	–	> 100	> 100 µM	> 100	–	95	–	–	–	–	–	–	–	–	–	–	–	–
O=c1cc(-c2ccc(O)cc2)oc2cc(O)cc(O)c12	> 100	> 100	56.6	80	91.9 µM	68	> 100 µM	> 100	–	–	–	–	–	–	–	–	–	–	–	–
O=c1[nH]cnc2c1ncn2CCCCO	> 100	> 100	> 100	> 100	> 100 µM	> 100	> 100 µM	> 100	–	–	–	–	–	–	–	–	–	–	–	–
COc1ccc(OC)c(/C=N/N=C2\C(=O)Nc3c(Cl)cc(Cl)cc32)c1	> 100	79.4	> 100	> 100	> 100 µM	> 100	–	> 100	> 100	–	–	–	–	–	–	–	–	–	–	–
CC1=C(C(=O)Nc2ccccc2C)C(c2ccccc2C)C(C(=O)Nc2ccccc2C)=C(C)N1	62.5	62.8	29.4	40.1	34.7 µM	66.3	81.3 µM	46.5	–	–	–	–	–	–	–	–	–	–	–	–
COc1cc2c(cc1OCCCCCn1c3ccccc3c3ccccc31)N=C[C@@H]1CCCN1C2=O	4.57	3.91	–	4.69	3.57 µM	5.49	–	4.38	9.19	2.11	2.23	4.67	1.72	1.8 µM	2.08 µM	2.33 µM	1.88 µM	2.42	–	–
NS(=O)(=O)c1ccc(N2N=C(c3cccs3)CC2c2ccccc2O)cc1 (centres undefined)	1.88	9.46	–	14.2	2.64 µM	6.11	5.29 µM	–	4.45	0.577	0.903	2.33	–	2.67 µM	1.6 µM	1.01 µM	0.933 µM	1.25	1.16 µM	–
COc1ccc(C=C2C(=O)NC(=O)NC2=O)cc1OCc1ccccc1	–	–	–	–	39.3 µg/mL	–	48.8 µg/mL	–	–	–	–	–	–	36.9 µg/mL	27.1 µg/mL	59.6 µg/mL	17 µg/mL	–	17.8 µg/mL	57.2 (≈ 162 µM)
NS(=O)(=O)c1ccc(NC(=O)c2cccc3c(Nc4ccc(S(N)(=O)=O)cc4)c4ccccc4nc23)cc1	> 100	> 100	> 100	> 100	35.2 µM	> 100	39.1 µM	96.8	–	–	–	–	–	–	–	–	–	–	–	–
CC1CC(=O)c2c(ccc3c2C(=O)c2cccc(O)c2C3=O)C1 (centres undefined)	25.2	–	13.1	–	16.5 µM	36.1	39.1 µM	18.1	–	–	–	–	–	–	–	–	–	–	–	–
CCOC(=O)c1cn(CC)c2cc3c(cc2c1=O)SCS3	> 100	> 100	> 100	> 100	> 100 µM	> 100	> 100 µM	> 100	–	–	–	–	–	–	–	–	–	–	–	–
